Read-outs that look alike come from different tables or passages of the source.
Experiments:
mAb12.8 [1] = experiment: ELISA, binding of defucosylated SLe^x epitope to mAb12.8 with and without α1,3,4 fucosidase treatment; set-up: species or system mouse; details: 250 ng per well, FIG. 3; for binding to mAb12.8 after fucosidase treatment: 200 units per well α1,3,4 fucosidase, 37° C. overnight
Experimental: In a related experiment, the binding of a partially defucosylated SLe^X epitope (coupled to HSA) is evaluated using a similar ELISA. […] 100 μl of 2% BSA in Tris-Ca^++ buffer is added to each well to block further non-specific binding, and the plates are incubated at room temperature for 1 hour, followed by 2 washes with Tris-Ca^++ buffer. 200 units per well of α1,3,4 fucosidase (New England Biolabs, Beverly, Mass.) in citrate buffer (pH 4.0) is then added to half of the wells. The plates are covered and incubated at 37° C. overnight.
The plates are then washed three times with Tris-Ca^++ buffer and mAb12.8 (100 μl of 10 μg/mL mAb12.8 in Tris-Ca^++ buffer) is then added to each well except for 1 negative control for each condition. The plates are incubated at room temperature for 2 hours.
The plates are then washed 3 times with Tris-Ca^++ buffer, and 100 μl of 1 μg/mL peroxidase-labeled goat anti-mouse IgM (KPL, Inc., Gaithersburg, Md.) in 1% BSA Tris-Ca^++ buffer is added to each well. The plates are incubated at room temperature for 1 hour. The wells are then washed 5 times with Tris-Ca^++ buffer, and 100 μl of TMB substrate solution (KPL, Gaithersburg, Md.) is added to each well, and the reaction is allowed to proceed for 2 minutes. The reaction is stopped, and detection enhanced, by the addition of 100 μl of IM formic acid/well. The absorbance at 450 nm is then determined in a Titertek Multiskan MCC/340 plate reader (Flow Laboratories, Inc., McLean, Va.).

[2] = tested on: KG1A cells bound to mAb12.8; experiment: Parallel plate flow assay, inhibition of CD34+ (KG1A) cell binding to immobilized mAb12.8; format: cell-based; details: 200 ng carbohydrate per dish, 250 ng mAb12.8, wall shear stress 0.48 dynes/cm^2 for 2 minutes; FIG. 5
Experimental: This Example illustrates the use of a representative carbohydrate according to this invention to release KG1A cells (ATCC No. CCL246.1, Rockville, Md.) bound to mAb12.8.
Monoclonal antibody 12.8 is immobilized on 35 mm tissue culture dishes by adsorption, as shown below:
Each substrate is coated on the dish and incubated at 37° C. for 1 hour prior to adding the next substrate or running the flow assay. The flow assay utilizes a parallel plate flow chamber mounted on an inverted-stage microscope to visualize the adhesive interactions between cells and substrates. Each dish is attached to the flow chamber and mounted on the microscope stage.
To prevent binding of the cells to mAb12.8 by way of Fc receptors on the cell surface, human IgG ([…]) is added to the KG1A cells 10 minutes prior to the flow assay. In addition, 200 ng of 3′SL-HSA is added to dish 2, and 200 ng of 6′SL-HSA is added to dish 3, and flow is initiated such that the cells flow over the surface of the dish at a wall shear stress of 0.48 dynes/cm^2 for 2 minutes, prior to collecting images at 7 different locations on the dish. The images are then quantified, using video microscopy coupled to digital image processing, to determine the number of adherent cells in each image, and the number of cells in the 7 images are averaged.

mAb12.8 [3] = format: binding; details: for binding to mAb12.8: ELISA of Example 2 part A / Example 3, FIG. 4, GM3 immobilized from methanol; for A450 (absorbance at 450 nm): 10 μg/mL mAb12.8
Experimental: Microtiter plates are prepared with serial dilutions of 3′SL-HSA (prepared as described in Example 1) in Tris-Ca^++ buffer (0.05M Tris HCl, pH 7.5, 0.15 M NaCl, 2 mM CaCl2), starting with 500 ng/well. The plates are incubated at 37° C. for 1 hour to immobilize the carbohydrate on the plastic well surface.
100 μl of 2% BSA in Tans-Cat^++ buffer is added to each well, and the plates are incubated at room temperature for 1 hour, and washed 3 times with Tris-Ca^++ buffer. 100 μl of 10 μg/mL mAb12.8 in 1% BSA Tris-Ca^++ buffer is then added to each well, and the plates are incubated at room temperature for 2 hours. Again, the plates are washed 3 times with Tris-Ca^++ buffer.
100 μl of 1 μg/mL peroxidase-labeled goat anti-mouse IgM (KPL, Inc., Gaithersburg, Md.) in 1% BSA Tris-Ca^++ buffer is added to each well, and the plates are incubated at room temperature for 1 hour, and washed 3 times with Tris-Ca^++ buffer. 100 μl of TMB (tetramethylbenzidine) substrate solution (KPL, Inc., Gaithersburg, Md.) is then added to each well, and the reaction is allowed to proceed for 2 minutes. The reaction is stopped, and detection enhanced, by the addition of 100 μl of 1M formic acid/well. The absorbance at 450 nm is then determined in a Titertek Multiskan MCC/340 plate reader (Flow Laboratories. Inc., McLean, Va.).
To illustrate the specificity of the interaction between 3′SL-HSA and mAb 12.8, and to further characterize the epitope of the antibody, the assay described in Example 2, part A, is performed using the control carbohydrates shown below:
The assays of each of the above HSA conjugates are performed as described for 3′SL-HSA. For GM3, the assay is as described above except that dilutions of GM3 are prepared in methanol, and immobilization on the plastic well surface is achieved by allowing the methanol to completely evaporate under an exhaust hood. After immobilization, 100 μl of 1% BSA in Tris-Ca^++ buffer is added to the wells containing GM3.

mAb12.8 [4] = experiment: ELISA, effect of varying linker arm and carrier group on carbohydrate binding to mAb12.8; set-up: species or system mouse; details: 100 μl of carbohydrate at 0.5 μg/ml immobilized; 10 μg/ml mAb12.8; FIG. 2
Experimental: The effect of altering the chemical linker arm and carrier group on the 3′SL binding to mAb12.8 is evaluated using the following carbohydrates, prepared as described in example 1: 3′SL-APD-dendrimer. 3′SL-APD-BSA. 3′SL-APEA-BSA, 3′SL-APD-HSA and 6′SL-APD-HSA.
100 μl of each of the above carbohydrates is added to duplicate wells in a 96-well microtiter plate at 0.5 μg/ml. The plates are incubated overnight at 4° C. to immobilize the carbohydrates on the plastic well surface. The wells are then washed three times and filled with Tris-Cat^++ buffer (0.05 M Tris-HCl, pH 7.5, 0.15 M NaCl, 2 mM CaCl2) containing 1% BSA. The plates are then incubated for 1 hour at room temperature to block nonspecific binding.
The plates are washed three times with Tris-Ca^++ buffer and mAb 12.8 (100 μl of 10 μg/ml in Tris-Ca^++ buffer) is added to all wells except one negative control for each condition. The plates are incubated for an additional two hours at room temperature. […]
Wells are washed five times with Tris-Ca^++ buffer and 100 μl of tetramethylbenzidine solution (TMB substrate solution. KPL, Inc., Gaithersburg, Md.) is added. […] The microtiter plate is read in a Titertek Multiskan MCC/340 plate reader (Flow Laboratories, Inc., McLean, Va.) set at a wavelength of 450 nm.

Row | Substance | binding to mAb12.8 after fucosidase treatment (mAb12.8 [1]) | binding to mAb12.8 (mAb12.8 [3]) | further results
1 | Neu5Acα2-3Galβ1-4GlcNAcβ1-3Galβ1-4(Glc)-HSA | bind to mAb12.8 | – | –
2 | Neu5Acα2-3Galβ1-4(Glc)-APD-HSA [3′SL-HSA] | no detectable effect on binding | binds to mAb12.8 | inhibition of binding of KG1A cells to mAb12.8 [2]: inhibits the binding of KG1A cells to mAb12.8; A450 (absorbance at 450 nm) (mAb12.8 [3]; about 100 ng per well immobilized carbohydrate): greater than 1; A450 (absorbance at 450 nm) (mAb12.8 [3]; about 200 ng per well immobilized carbohydrate): ~3; A450 (absorbance at 450 nm) (mAb12.8 [3]; amounts less than about 70 ng/well immobilized carbohydrate): approximately 0.5; binding to mAb12.8 (mAb12.8 [1]; absence of fucosidase treatment): bind to mAb12.8
3 | Neu5Acα2-3Galβ1-4Glcβ1-1Ceramide [GM3, reference compound] | – | does not bind | –
4 | Neu5Acα2-6Galβ1-4(Glc)-APD-HSA [6′SL-HSA, reference compound] | – | does not bind | binding to mAb12.8 (mAb12.8 [4]): does not bind
5 | Neu5Acα2-3Galβ1-3GlcNAcβ1-3Galβ1-4(Glc)-APD-HSA [LSTa-HSA, reference compound] | – | does not bind | –

Source: US6362010B1, “Methods and compositions for release of CD3430 cells from affinity matrices” (priority 1995, dated 2002)
